The term IC50 denotes the concentration that inhibits the measured activity by half.

One assay concerns A431 cell. The assay can be described thus: Cell Proliferation Inhibition EGFR Assay (SRB method). Format: cell-based, homo sapient. Particulars: Homo sapiens, A-431, 72 h, read-out: IC50 (A431). The source says: The following in vitro assay may be used to determine the level of activity and effect of different compounds of the present invention on the proliferation inhibition (cell toxic) of […] growth factor receptor (EGFR) high expressing homo […] cancer cell-A431 cell. The cellular assay described here measure the compounds of their anti-angiogenesis and proliferation inhibition activity and effect through EGFR on the cancer cells in vitro. The effect and activity is represented by the IC50 value that kills the cancer cell. […] The homo […] highly express EGFR are chosen and seeded to 96-well cell culture plate at a suitable concentration (exp 5000 cells/ml medium). The cells then are cultured in carbon dioxide (CO2) incubator till when they confluence to about 85%. Then, the cell culture medium is replaced by fresh one with tested compounds added in it at serial concentrations (general 6 to 7 concentrations). Then the cells are put back to the culture and cultured for continuous 72 hours. 72 hours later, the cell exposed to compounds and control cell are assayed for their proliferation using Sulforhodamine B (SRB) method. Compounds IC50 on tested cells are calculated by the data of inhibition rates of serial concentrations of the tested compounds. • a. Dimethyl sulfoxide (Sinophma chemical reagent company, catalog No. T20050806) • b. A431 cells (Purchased from Institute of biochemistry and cell biology) • c. Falcon 100 mm cell culture plates (Baton Dickison Labware, Baton Dickison and company, • Catalog No. 18677) • d. coming 96-well culture cluster (Corning Incorporated, Catalog No. 3599) • e. Fisher Pipette (Fisher scientific, Catalog No. 03-692-164) • f. DMEM/F12 cell medium (Gibco, Catalog No. 12400-024) • g. Fetal bovine serum, origin from Australia (Gibco, Catalog No. 10099-141) • h. […] Sulforhodamine B (Sigma, Catalog No. 3520-42-1) • k. Acetic Acid (Sinophma chemical reagent company, Catalog No. T20060508) • l. Trichloroacetic Acid (Sinophma chemical reagent company, Catalog No. T20060305) • m. Tris base (Amresco, Catalog No. 0826) • n. Class II A/B3 Biological safety cabinet (ThermoForma Catalog No. HB0053 03) • o. Series II water jacketed CO2 incubator (ThermoForma Model: 3111) • p. Centrifuge (Fisher Scientific Marathon 8 k, Catalog No. 0027-02) • q. Novastar Plate reader (BMG Labtech, Catalog No. 700 0081) • r. Orbital Shaker (Qilinbeier, Catalog No. TS-1) Protocol: […] Growing seeded 96-well plates at 37° C., 5% CO2, till 85% confluence. • 4. Prepare compounds stock solution, using DMSO solve candidate compounds to a concentration of 20 mM. […] Use cell culture medium (in this case, DMEM/F12+10% FBS) to dilute the compounds solution prepared above. Each DMSO serial concentration compound solution is diluted by 20 times with culture medium by adding 5 μl DMSO compound solution to 95 μl culture medium, then mix well by vortex. This promise that the DMSO concentration at that the A431 cell will exposed to will not surpass 0.5%. • 6. […] Each well added 180 μl medium, then add 20 μl medium solution of tested compounds prepared at step 5 to each well. For control group cell, add 20 μl culture medium containing 0.5% pure DMSO. […] Each 96-well plate, we can test 3 compounds with a control cell group. • 7. Put the culture plates back to incubator, culture for 72 hours at 37° C., 5% CO2. • 8. 72 hours later, remove cultures from incubator into sterile work area. • 9. Prepare fixative (50% Trichloroacetic Acid-TCA) by adding reagent grade water to the TCA, fix the cells by gently layering […] of cold TCA solution on top of the growth medium. • 10. Incubate plates for 1 hour at 4° C. and then rinse with water several times to remove TCA, serum proteins, etc. Plates are air dried and stored until use. Bland background optical density is measured in wells incubated with growth medium without cells. • 11. Use 10% acetic acid solution to prepare 0.4% Sulforhodamine B solution. Add 50 μl sulforhodamine B solution to each well of 96-well plates. • 12. […]
For orientation: In SRB staining, fixed cells bind dye roughly in proportion to their protein.
Turning to `Cc1c(/C=C2\C(=O)Nc3ccc(F)cc32)[nH]c2c1C(=O)N(CCN1CCOCC1)CC2` [Example 15, 2-(5-Fluoro-2-oxo-1,2-dihydro-indol-3-ylidenemethyl)-3-methyl-5-(2-morpholin-4-yl-ethyl)-1,5,6,7-tetrahydro-pyrrolo[3,2-c]pyridin-4-one], the IC50 came out at 1350 nM.

Still in this assay, the particulars now being: Homo sapiens, A-431; A431 cells, 72 hours exposure, Sulforhodamine B; read-out: IC50 (A431).
On to `Cc1c(/C=C2\C(=O)Nc3cc(NCc4ccc(F)cc4)c(F)cc32)[nH]c2c1C(=O)N(CCN1CCCCC1)CC2` [Example 94, 2-[5-Fluoro-6-(4-fluoro-benzylamino)-2-oxo-1,2-dihydro-indol-3-ylidenemethyl]-3-methyl-5-(2-piperidin-1-yl-ethyl)-1,5,6,7-tetrahydro-pyrrolo[3,2-c]pyridin-4-one], for which the IC50 was determined as 340 nM.

As to `Cc1c(/C=C2\C(=O)Nc3cccc(-c4cccc(Cl)c4F)c32)[nH]c2c1C(=O)N(CCN1CCOCC1)CC2` [Example 48, 2-[4-(3-Chloro-2-fluoro-phenyl)-2-oxo-1,2-dihydro-indol-3-ylidenemethyl]-3-methyl-5-(2-morpholin-4-yl-ethyl)-1,5,6,7-tetrahydro-pyrrolo[3,2-c]pyridin-4-one], the IC50 was 6110 nM.

For `Cc1c(/C=C2\C(=O)Nc3cccc(CCO)c32)[nH]c2c1C(=O)N(CCN1CCCC1)CC2` [Example 75, 2-[4-(2-Hydroxy-ethyl)-2-oxo-1,2-dihydro-indol-3-ylidenemethyl]-3-methyl-5-(2-pyrrolidin-1-yl-ethyl)-1,5,6,7-tetrahydro-pyrrolo[3,2-c]pyridin-4-one], the IC50 amounted to 1680 nM.

As to `O=C(CO)Nc1cc2c(cc1F)/C(=C/c1[nH]c3c(c1-c1ccc(F)cc1)C(=O)NCC3)C(=O)N2` [Example 65, N-{5-Fluoro-3-[3-(4-fluoro-phenyl)-4-oxo-4,5,6,7-tetrahydro-1H-pyrrolo[3,2-c]pyridin-2-ylmethylene]-2-oxo-2,3-dihydro-1H-indol-6-yl}-2-hydroxy-acetamide], the IC50 is 3060 nM.

In the case of `Cc1c(/C=C2\C(=O)Nc3ccc(NC=O)cc32)[nH]c2c1C(=O)N(CCN1CCCCC1)CC2` [Example 91, N-{3-[3-Methyl-4-oxo-5-(2-piperidin-1-yl-ethyl)-4,5,6,7-tetrahydro-1H-pyrrolo[3,2-c]pyridin-2-ylmethylene]-2-oxo-2,3-dihydro-1H-indol-5-yl}-formamide], the IC50 was 120 nM.

In the case of `Cc1c(/C=C2\C(=O)Nc3cc(NC(=O)CO)c(F)cc32)[nH]c2c1C(=O)N(CCN1CCCCC1)CC2` [Example 61, N-{5-Fluoro-3-[3-methyl-4-oxo-5-(2-piperidin-1-yl-ethyl)-4,5,6,7-tetrahydro-1H-pyrrolo[3,2-c]pyridin-2-ylmethylene]-2-oxo-2,3-dihydro-1H-indol-6-yl}-2-hydroxy-acetamide], the IC50 was found to be 1250 nM.

Turning to `Cc1c(/C=C2\C(=O)Nc3ccc(NS(C)(=O)=O)cc32)[nH]c2c1C(=O)N(CCN1CCOCC1)CC2` [Example 22, N-{3-[3-Methyl-5-(2-mopholin-4-yl-ethyl)-4-oxo-4,5,6,7-tetrahydro-1H-pyrrolo[3,2-c]pyridine-2-ylmethylene]-2-oxo-2,3-dihydro-1H-indol-5-yl}-methanesulfonamide], the 50% inhibitory concentration (IC50) was determined as 2850 nM.

On to `COCC(=O)Nc1cc2c(cc1F)/C(=C/c1[nH]c3c(c1-c1ccc(F)cc1)C(=O)NCC3)C(=O)N2` [Example 67, N-{5-Fluoro-3-[3-(4-fluoro-phenyl)-4-oxo-4,5,6,7-tetrahydro-1H-pyrrolo[3,2-c]pyridin-2-ylmethylene]-2-oxo-2,3-dihydro-1H-indol-6-yl}-2-methoxy-acetamide], for which the IC50 turned out to be 2030 nM.

On to `Cc1c(/C=C2\C(=O)Nc3c(Br)cc(F)cc32)[nH]c2c1C(=O)N(CCN1CCCCC1)CC2` [Example 90, 2-(7-Bromo-5-fluoro-2-oxo-1,2-dihydro-indol-3-ylidenemethyl)-3-methyl-5-(2-piperidin-1-yl-ethyl)-1,5,6,7-tetrahydro-pyrrolo[3,2-c]pyridin-4-one], for which the half-maximal inhibitory concentration (IC50) came out at 270 nM.

Take `Cc1c(/C=C2\C(=O)Nc3cccc(-c4c(F)cccc4F)c32)[nH]c2c1C(=O)N(CCN1CCCCC1)CC2` [Example 63, 2-[4-(2,6-Difluoro-phenyl)-2-oxo-1,2-dihydro-indol-3-ylidenemethyl]-3-methyl-5-(2-piperidin-1-yl-ethyl)-1,5,6,7-tetrahydro-pyrrolo[3,2-c]pyridin-4-one]: the 50% inhibitory concentration (IC50) was determined as 530 nM.

Consider `CCN(CC)CCN1CCc2[nH]c(/C=C3\C(=O)Nc4c(NC(C)=O)cc(F)cc43)c(C)c2C1=O` [Example 6, N-{3-[5-(2-Diethylamino-ethyl)-3-methyl-4-oxo-4,5,6,7-tetrahydro-1H-pyrrolo[3,2-c]pyridine-2-ylmethylene]-5-fluoro-2-oxo-2,3-dihydro-1H-indol-7-yl}-acetamide], for which the IC50 worked out at 1380 nM.

As to `Cc1c(/C=C2\C(=O)Nc3ncc(Br)cc32)[nH]c2c1C(=O)N(CCN1CCCCC1)CC2` [Example 93, 2-(5-Bromo-2-oxo-1,2-dihydro-pyrrolo[2,3-b]pyridin-3-ylidenemethyl)-3-methyl-5-(2-piperidin-1-yl-ethyl)-1,5,6,7-tetrahydro-pyrrolo[3,2-c]pyridin-4-one], the IC50 came to 1660 nM.

Source of the values: US8697692B2, “Pyrrolo [3,2-c] pyridine-4-one 2-indolinone protein kinase inhibitors” (Shanghai Hengrui Pharmaceutical Co., Ltd., priority 2006, dated 2014).
